According to PubChem BioAssay (NCI):
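Test compounds were applied to cells in 96-well plates for 48 hours at 5 doses. The concentration for 50% growth inhibition is given as GI50. At the TGI there is no net growth.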

Assays:
Assay in all cases: NCI-60 cell line screen, 48 h
[1] = test system: HL-60(TB) leukemia
[2] = test system: SNB-75 CNS
[3] = test system: COLO 205 colon
[4] = test system: IGROV1 ovarian
[5] = test system: HS 578T breast
[6] = test system: HCT-15 colon
[7] = test system: NCI-H23 lung
[8] = test system: NCI/ADR-RES ovarian
[9] = test system: A498 renal
[10] = test system: RPMI-8226 leukemia
[11] = test system: MDA-MB-231 breast
[12] = test system: NCI-H522 lung
[13] = test system: MALME-3M melanoma
[14] = test system: UACC-257 melanoma
[15] = test system: OVCAR-5 ovarian
[16] = test system: DU-145 prostate
[17] = test system: OVCAR-4 ovarian
[18] = test system: HOP-62 NSCLC
[19] = test system: U251 CNS
[20] = test system: HT29 colon
[21] = test system: A549 NSCLC
[22] = test system: SN12C renal
[23] = test system: OVCAR-3 ovarian
[24] = test system: SF-539 CNS
[25] = test system: SK-OV-3 ovarian
[26] = test system: UO-31 renal
[27] = test system: SF-268 CNS

Compound: COc1ccc(-c2oc3cc(O)cc(O)c3c(=O)c2OC)cc1O
- GI50 [1]: 0.445 µM
- TGI [1]: 1.1 µM
- GI50 [2]: 0.406 µM
- TGI [2]: 3.45 µM
- GI50 [3]: > 16.5 µM
- TGI [3]: > 16.5 µM
- GI50 [4]: 4.16 µM
- TGI [4]: > 16.5 µM
- GI50 [5]: 0.762 µM
- TGI [5]: > 16.5 µM
- GI50 [6]: 0.749 µM
- TGI [6]: > 16.5 µM
- GI50 [7]: 0.945 µM
- TGI [7]: > 16.5 µM
- GI50 [8]: 0.583 µM
- TGI [8]: 6.84 µM
- GI50 [9]: 3.5 µM
- TGI [9]: 14.6 µM
- GI50 [10]: 0.726 µM
- TGI [10]: > 16.5 µM
- GI50 [11]: 1.22 µM
- TGI [11]: > 16.5 µM
- GI50 [12]: 0.446 µM
- TGI [12]: 1.43 µM
- GI50 [13]: > 16.5 µM
- TGI [13]: > 16.5 µM
- GI50 [14]: > 16.5 µM
- TGI [14]: > 16.5 µM
- GI50 [15]: 8.69 µM
- TGI [15]: > 16.5 µM
- GI50 [16]: 1.1 µM
- TGI [16]: > 16.5 µM
- GI50 [17]: 3.16 µM
- TGI [17]: > 16.5 µM
- GI50 [18]: 0.814 µM
- TGI [18]: > 16.5 µM
- GI50 [19]: 0.631 µM
- TGI [19]: 6.05 µM
- GI50 [20]: 5.83 µM
- TGI [20]: > 16.5 µM
- GI50 [21]: 6.27 µM
- TGI [21]: > 16.5 µM
- GI50 [22]: 4.25 µM
- TGI [22]: > 16.5 µM
- GI50 [23]: 0.49 µM
- TGI [23]: 2.62 µM
- GI50 [24]: 0.495 µM
- TGI [24]: 1.72 µM
- GI50 [25]: 1.52 µM
- TGI [25]: > 16.5 µM
- GI50 [26]: 1.86 µM
- TGI [26]: > 16.5 µM
- GI50 [27]: 1.4 µM
- TGI [27]: > 16.5 µM
